Laboratory results from article PMC12489471, “A multi-dentate, cooperative interaction between endo- and exo-ribonucleases within the bacterial RNA degradosome” (Nucleic Acids Research, 2025).

B1: S. enterica PNPase core (domain or fragment, Salmonella enterica serovar Typhimurium, UniProt Q8ZLT3 1-552, looked up)
chain: MLNPIVRKFQYGQHTVTLETGMMARQATAAVMVSMDDTAVFVTVVGQKKAKPGQDFFPLTVNYQERTYAAGRIPGSFFRREGRPSEGETLIARLIDRPVRPLFPEGFVNEVQVIATVVSVNPQVNPDIVAMIGASAALSLSGIPFNGPIGAARVGYINDQYVLNPTQDELKESKLDLVVAGTEAAVLMVESEAELLSEDTMLGAVVFGHEQQQVVIQAINDLVKEAGKPRWDWQPEAVNDALNARVAALAESRLSDAYRITDKQERYAQVDVIKSETIEQLIAEDETLDANELGEILHAIEKNVVRSRVLAGEPRIDGREKDMIRGLDVRTGVLPRTHGSALFTRGETQALVTATLGTARDAQVLDELMGERTDSFLFHYNFPPYSVGETGMVGSPKRREIGHGRLAKRGVLAVMPDMDKFPYTVRVVSEITESNGSSSMASVCGASLALMDAGVPIKAAVAGIAMGLVKEGDNYVVLSDILGDEDHLGDMDFKVAGSRDGISALQMDIKIEGITKEIMQVALNQAKGARLHILGVMEQAINAPRGDISEFA
notes: polynucleotide phosphorylase (PNPase) core, Salmonella enterica serovar Typhimurium, aa 1–552; also called Salmonella typhimurium polynucleotide phosphorylase core; source: E. coli Evo21(DE3), purified (Ni-NTA, intein cleavage, HIC, Q, Superdex 200); not shown: Mycobacterium xenopi GyrA intein, C-terminal, cleaved; His8, C-terminal, cleaved

Columns and labels:
PNPase core = conditions: X-ray, PDB: 3GCM; cited from earlier work
Excerpt: Previous studies identified a PNPase binding motif encompassing residues 1039–1061 at the very C-terminus of E. coli RNase E (Fig. 1). […] Following the β-strand, there is a stretch of eight residues containing three prolines and two charged amino acids. The RNase E residues 1048–1061 will be referred to as ‘β1 motif’ hereafter (Fig. 2A). Multiple sequence alignment s ...

[1] = biological target: the molecule itself; test: cryo-EM structure; purified PNPase core and RNase E-muGFP-CHis mixed 1:2, complex separated on Superdex 200 Increase in 20 mM Tris–HCl pH 8.0, 25 mM MgCl2, 150 mM KCl, 1 mM TCEP; 8 mM CHAPSO; E. coli and S. enterica proteins

Molecule | binding mode in crystal structure (PNPase core) | stoichiometry N [1]
RNase E residues 1021–1061: peptide encompassing RNase E residues 1021–1061 in crystal structure with PNPase (EAPRHSDWQRPTFAFEGKGAAGGHTATHHASAAPARPQPVE; UniProt P21513 1021-1061, looked up, fragment) | forms a β-strand that extends an exposed β-sheet of the PNPase core | –
B1 | – | 3
